Where a name gives a salt, the structure may show the parent alone. Read-outs that look alike come from different tables or passages of the source. One block for each compound: values may come before it.
How the values were obtained:
[1] = system: amphetamine-induced symptoms (cage movement) in rats; experiment: Antagonism of amphetamine stereotypy in rats; type: in vivo, rat; conditions: for ED50: Rattus norvegicus; for ED50 (micrograms/kilograms) 1 Hr. / ED50 (mg./kg.) 1 Hr.: 60 min; for ED50 (micrograms/kilograms) 5 Hrs. / ED50 (mg./kg.) 5 Hrs.: 300 min; for ED50 (micrograms/kilograms) 24 Hrs. / ED50 (mg./kg.) 24 Hrs.: 1440 min; for ED50 (mg./kg.) 1 Hr. / ED50 (mg./kg.) 5 Hrs. / ED50 (mg./kg.) 24 Hrs. / ED50 (mg./kg.) 48 Hrs. / ED50 (mg./kg.) 72 Hrs.: Part D, enantiomers from Example 21; for ED50 (mg./kg.) 48 Hrs.: 2880 min; for ED50 (mg./kg.) 72 Hrs.: 4320 min
Protocol: Antagonism of Amphetamine Stereotypy in Rats Test Procedures and Results
The effects of the compounds of the present invention on prominent amphetamine-induced symptoms were studied in rats by a rating scale modeled after the one reported by Quinton and Halliwell, and Weissman. Groups of five rats were placed in a covered plastic cage measuring approximately 26 cm.×42 cm.×16 cm. […] They were then treated 1, 5 and 24 hrs. later with d-amphetamine sulfate, 5 mg./kg. intraperitoneally (i.p.). […] On the basis of dose-response data after amphetamine it was possible to determine the effective dose of the compound necessary to antagonize or block the characteristic amphetamine behavior of cage movement for fifty percent of the rats tested (ED50). The time of rating chosen coincides with the peak action of amphetamine which is 60-80 min. after treatment with this agent.
Employing the above-described procedure, the following 4a,9b-trans compounds were tested for their ability to block the behavior effects of amphetamine, the results being reported as the ED50 in mg./kg. at the indicated times: [drawing 31]
A. The following results were obtained on the mixture of diastereomers for those compounds wherein R contains a secondary alcohol group and on the single diastereomer of the other 4a, 9b-trans hexahydro-pyrido-indoles.
B. The results of tests in which compounds of the invention reported in Part A, above are compared with the corresponding δ-substituted-5-aryl-1,2,3,4-tetrahydropyrido[4,3-b]indoles of U.S. Pat. No. 4,001,263 are summarized below. For each pair the results obtained on the prior art compound (a) are given first and the results for the compound of the invention (b) are given second. Where indicated the test compound was also administered orally (p.o.) and tests were carried out for 48 hours.
C. Test results expressed as micrograms/kilograms, obtained on the diastereomers αβ and γδ separated in Example 13 and each of the enantiomers α, β, γ and δ resolved by the procedure of Example 14 are shown below. In each case the compounds are of the formula
The tests were carried out for 72 hours.

dopamine receptors = dopamine receptors (Rattus norvegicus, UniProt P61169); experiment: Inhibition of 3H-spiroperidol binding to dopamine receptors; parameters: species or system rat (Sprague-Dawley CD males); conditions: rat corpus striatum; 0.5 nM 3H-spiroperidol; 10 min at 37° C.; hydrochloride salts
Chain of dopamine receptors (P61169 whole entry): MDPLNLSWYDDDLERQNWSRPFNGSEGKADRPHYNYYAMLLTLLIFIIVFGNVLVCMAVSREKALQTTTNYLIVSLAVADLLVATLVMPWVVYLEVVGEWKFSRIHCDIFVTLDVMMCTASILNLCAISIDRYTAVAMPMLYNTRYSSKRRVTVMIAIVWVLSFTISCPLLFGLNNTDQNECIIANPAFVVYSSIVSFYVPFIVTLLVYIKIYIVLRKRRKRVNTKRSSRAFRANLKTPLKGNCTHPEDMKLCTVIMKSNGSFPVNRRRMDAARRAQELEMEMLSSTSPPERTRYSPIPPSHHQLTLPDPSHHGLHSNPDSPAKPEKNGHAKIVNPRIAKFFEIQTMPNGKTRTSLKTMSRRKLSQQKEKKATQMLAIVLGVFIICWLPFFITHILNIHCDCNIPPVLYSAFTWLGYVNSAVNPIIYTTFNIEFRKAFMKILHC

[2] = sc, 1 h, read-out: ED50 (mg./kg.) 1 Hr.
[3] = sc, 5 h, read-out: ED50 (mg./kg.) 5 Hr.
[4] = sc, 1 h, Part A, 1 hr, test compound s.c. (method), read-out: ED50 (mg./kg.) 1 Hr.
[5] = sc, 5 h, Part A, 5 hr, test compound s.c. (method), read-out: ED50 (mg./kg.) 5 Hr.
[6] = sc, 24 h, Part A, 24 hrs, test compound s.c. (method), read-out: ED50 (mg./kg.) 24 Hrs.
[7] = ip, 1 h, Part B, 1 hr, i.p., read-out: ED50 (mg./kg.) 1 Hr.
[8] = ip, 5 h, Part B, 5 hrs, i.p., read-out: ED50 (mg./kg.) 5 Hrs.
[9] = ip, 24 h, Part B, 24 hrs, i.p., read-out: ED50 (mg./kg.) 24 Hrs.

Structure (SMILES): c1ccc(N2c3ccccc3[C@@H]3CNCC[C@H]32)cc1 (relative stereo) [X1=H, Y1=H, R=H, dl-trans-5-Phenyl-2,3,4,4a,5,9b-hexahydro-1H-pyrido[4,3-b]indole, reference compound]
- ED50 [1, 2]: 3.2 to 32 mg/kg
- ED50 [1, 3]: > 3.2 mg/kg
- ED50 ([1]; sc, 24 h, read-out: ED50 (mg./kg.) 24 Hrs.): > 32 mg/kg

Structure (SMILES): COc1ccc(C(O)CCCN2CCC3C(C2)c2ccccc2N3c2ccccc2)cc1 (stereo not shown)
- ED50 [1, 4]: 0.1 to 0.32 mg/kg
- ED50 [1, 5]: 0.1 to 0.32 mg/kg
- ED50 [1, 6]: ~1 mg/kg

Structure (SMILES): OC(CCCN1CC[C@@H]2[C@@H](C1)c1ccccc1N2c1ccccc1)c1ccccc1 (relative stereo)
- ED50 [1, 7]: 0.032 to 0.1 mg/kg
- ED50 [1, 8]: 0.032 to 0.1 mg/kg
- ED50 [1, 9]: 0.1 to 0.32 mg/kg
- ED50 [1, 4]: 0.032 to 0.1 mg/kg
- ED50 [1, 5]: 0.032 to 0.1 mg/kg
- ED50 [1, 6]: 0.1 to 0.32 mg/kg

Structure (SMILES): OC(CCCN1CCC2C(C1)c1cc(F)ccc1N2c1ccc(F)cc1)c1ccc(F)cc1 (single isomer, unassigned) [γ, 8-fluoro-5-(p-fluorophenyl)-2-[4-hydroxy-4-(p-fluorophenyl)butyl]-2,3,4,4a,5,9b-hexahydro-1H-pyrido[4,3-b]indole]
- ED50 (micrograms/kilograms) 1 Hr. ([1]; Part C, 1 hr, s.c. (method)): 180 micrograms/kilograms
- ED50 (micrograms/kilograms) 5 Hrs. ([1]; Part C, 5 hrs, s.c. (method)): 32-100 micrograms/kilograms
- ED50 (micrograms/kilograms) 24 Hrs. ([1]; Part C, 24 hrs, s.c. (method)): 32-100 micrograms/kilograms
- ED50 (mg./kg.) 1 Hr. ([1]; 1 hr): 0.178 mg/kg
- ED50 (mg./kg.) 5 Hrs. ([1]; 5 hrs): 0.045 mg/kg
- ED50 (mg./kg.) 24 Hrs. ([1]; 24 hrs): 0.018 mg/kg
- ED50 (mg./kg.) 48 Hrs. ([1]; 48 hrs): ca. 1 mg./kg.
- ED50 (mg./kg.) 72 Hrs. [1]: > 1 mg/kg

Structure (SMILES): O=C(CCCN1CC[C@@H]2[C@@H](C1)c1ccccc1N2c1ccccc1)c1ccc(F)cc1 (relative stereo)
- ED50 [1, 5]: 0.1 to 0.32 mg/kg

Structure (SMILES): c1ccc(CN2CC[C@@H]3[C@@H](C2)c2ccccc2N3c2ccccc2)cc1 (relative stereo) [X1=H, Y1=H, R=C6 H5 CH2, dl-trans-2-benzyl-2,3,4,4a,5,9b-hexahydro-5-phenyl-1H-pyrido-[4,3-b]indole Hydrochloride, reference compound]
- ED50 [1, 4]: ~10 mg/kg
- ED50 [1, 5]: 3.2 to 32 mg/kg
- ED50 [1, 6]: > 3.2 mg/kg

- IC50 (dopamine receptors): 23 nM
Structure (SMILES): OC(CCCN1CC[C@@H]2[C@@H](C1)c1cc(F)ccc1N2c1ccc(F)cc1)c1ccc(F)cc1 (relative stereo) [αβ, dl trans-8-fluoro-5-(p-fluorophenyl)-2-[4-hydroxy-4-(p-fluorophenyl)butyl]-2,3,4,4a,5,9b-hexahydro-1H-pyrido[4,3-b]indole]

Structure (SMILES): OC(CCCN1CCC2C(C1)c1cc(F)ccc1N2c1ccc(F)cc1)c1ccc(F)cc1 (single isomer, unassigned) [δ, 8-fluoro-5-(p-fluorophenyl)-2-[4-hydroxy-4-(p-fluorophenyl)butyl]-2,3,4,4a,5,9b-hexahydro-1H-pyrido[4,3-b]indole]
- ED50 (micrograms/kilograms) 1 Hr. ([1]; Part C, 1 hr, s.c. (method)): > 1000 micrograms/kilograms
- ED50 (micrograms/kilograms) 5 Hrs. ([1]; Part C, 5 hrs, s.c. (method)): 560 micrograms/kilograms
- ED50 (micrograms/kilograms) 24 Hrs. ([1]; Part C, 24 hrs, s.c. (method)): 320-1000 micrograms/kilograms
- ED50 (mg./kg.) 1 Hr. ([1]; 1 hr): > 10 mg/kg
- ED50 (mg./kg.) 5 Hrs. ([1]; 5 hrs): 5.7 mg/kg
- ED50 (mg./kg.) 24 Hrs. ([1]; 24 hrs): > 10 mg/kg
- ED50 (mg./kg.) 48 Hrs. ([1]; 48 hrs): > 10 mg/kg
- ED50 (mg./kg.) 72 Hrs. [1]: > 10 mg/kg

Structure (SMILES): c1ccc(CCCN2CC[C@@H]3[C@@H](C2)c2ccccc2N3c2ccccc2)cc1 (relative stereo) [X1=H, Y1=H, R=C6 H5 (CH2)3, reference compound]
- ED50 [1, 4]: 3.2 to 10 mg/kg
- ED50 [1, 5]: 3.2 to 10 mg/kg
- ED50 [1, 6]: > 10 mg/kg

- IC50 (dopamine receptors): 21 nM
Structure (SMILES): OC(CCCN1CC[C@@H]2[C@@H](C1)c1cc(F)ccc1N2c1ccc(F)cc1)c1ccc(F)cc1 (relative stereo) [αβγδ, dl-trans-8-Fluoro-5-(p-fluorophenyl)-2-[4-hydroxy-4-(p-fluorophenyl)butyl]-2,3,4,4a,5,9b-hexahydro-1H-pyrido[4,3-b]indole hydrochloride]
- ED50 ([1]; sc, 1 h, Part C, 1 hr, s.c. (method), read-out: ED50 (micrograms/kilograms) 1 Hr.): 0.032 to 0.1 mg/kg
- ED50 ([1]; sc, 5 h, Part C, 5 hrs, s.c. (method), read-out: ED50 (micrograms/kilograms) 5 Hrs.): 0.032 to 0.1 mg/kg
- ED50 ([1]; sc, 24 h, Part C, 24 hrs, s.c. (method), read-out: ED50 (micrograms/kilograms) 24 Hrs.): 0.032 to 0.1 mg/kg

Structure (SMILES): OC(CCCN1CCC2C(C1)c1cc(F)ccc1N2c1ccc(F)cc1)c1ccc(F)cc1 (single isomer, unassigned) [α, 8-fluoro-5-(p-fluorophenyl)-2-[4-hydroxy-4-(p-fluorophenyl)butyl]-2,3,4,4a,5,9b-hexahydro-1H-pyrido[4,3-b]indole]
- ED50 (micrograms/kilograms) 1 Hr. ([1]; Part C, 1 hr, s.c. (method)): 120 micrograms/kilograms
- ED50 (micrograms/kilograms) 5 Hrs. ([1]; Part C, 5 hrs, s.c. (method)): 32-100 micrograms/kilograms
- ED50 (micrograms/kilograms) 24 Hrs. ([1]; Part C, 24 hrs, s.c. (method)): 32-100 micrograms/kilograms
- ED50 (mg./kg.) 1 Hr. ([1]; 1 hr): 0.023 mg/kg
- ED50 (mg./kg.) 5 Hrs. ([1]; 5 hrs): 0.014 mg/kg
- ED50 (mg./kg.) 24 Hrs. ([1]; 24 hrs): 0.033 mg/kg
- ED50 (mg./kg.) 72 Hrs. [1]: > 10 mg/kg

Structure (SMILES): CCN1CCC2C(C1)c1ccccc1N2c1ccccc1 (stereo not shown) [X1=H, Y1=H, R=C2 H5, reference compound]
- ED50 [1, 2]: ~1 mg/kg
- ED50 [1, 3]: > 3.2 mg/kg

Structure (SMILES): OC(CCCN1CC[C@@H]2[C@@H](C1)c1cc(F)ccc1N2c1ccc(F)cc1)c1ccccc1 (relative stereo)
- ED50 [1, 4]: 0.1 to 0.32 mg/kg
- ED50 [1, 5]: 0.1 to 0.32 mg/kg
- ED50 [1, 6]: < 0.32 mg/kg

Structure (SMILES): OC(CCCN1CC[C@@H]2[C@@H](C1)c1ccccc1N2c1ccccc1)c1ccc(F)cc1 (relative stereo)
- ED50 [1, 4]: 0.1 to 0.32 mg/kg
- ED50 [1, 5]: 0.1 to 0.32 mg/kg
- ED50 [1, 6]: 0.1 to 0.32 mg/kg

Structure (SMILES): OC(CCCN1CC[C@@H]2[C@@H](C1)c1cc(F)ccc1N2c1ccc(F)cc1)c1ccc(F)cc1 (relative stereo) [drawing 38]
- ED50 [1, 7]: 0.032 to 0.1 mg/kg
- ED50 [1, 8]: 0.032 to 0.1 mg/kg
- ED50 [1, 9]: 0.032 to 0.1 mg/kg
- ED50 ([1]; ip, 48 h, Part B, 48 hrs, i.p., read-out: ED50 (mg./kg.) 48 Hrs.): 0.1 to 0.32 mg/kg
- ED50 ([1]; po, 1 h, Part B, 1 hr, p.o., read-out: ED50 (mg./kg.) 1 Hr.): 0.32 to 1 mg/kg
- ED50 ([1]; po, 5 h, Part B, 5 hrs, p.o., read-out: ED50 (mg./kg.) 5 Hrs.): 0.1 to 0.32 mg/kg
- ED50 ([1]; po, 24 h, Part B, 24 hrs, p.o., read-out: ED50 (mg./kg.) 24 Hrs.): 0.1 to 0.32 mg/kg
- ED50 [1, 4]: 0.032 to 0.1 mg/kg

Structure (SMILES): O=C(CCCN1CC[C@@H]2[C@@H](C1)c1cc(F)ccc1N2c1ccc(F)cc1)c1ccc(F)cc1 (relative stereo)
- ED50 [1, 7]: < 1 mg/kg
- ED50 [1, 8]: < 1 mg/kg
- ED50 [1, 9]: < 1 mg/kg
- ED50 [1, 4]: < 1 mg/kg
- ED50 [1, 5]: < 1 mg/kg
- ED50 [1, 6]: < 1 mg/kg

Structure (SMILES): OC(CCCN1CCC2C(C1)c1cc(F)ccc1N2c1ccc(F)cc1)c1ccc(F)cc1 (single isomer, unassigned) [β, 8-fluoro-5-(p-fluorophenyl)-2-[4-hydroxy-4-(p-fluorophenyl)butyl]-2,3,4,4a,5,9b-hexahydro-1H-pyrido[4,3-b]indole hydrochloride]
- IC50 (dopamine receptors): 1800 nM

Reference: patent publication US4252812A, “2-Substituted-trans-5-ar yl-2,3,4,4a,5,9b-hexahydro-1H-pyrido[4,3-b]indoles” (Pfizer Inc., priority 1980, dated 1981)
